Assay results reported in article PMC7501296, “Rapid and direct control of target protein levels with VHL-recruiting dTAG molecules” (Nature Communications, 2020).
Several values for one entry are separate records, joined by “and”; a condition that tells them apart may be missing. Equal values may be shown once. Read-outs that look alike come from different tables or passages of the source.

Assays:
FKBP12^F36V-KRAS^G12V = molecular target: T1, FKBP12^F36V-KRAS^G12V (Homo sapiens, UniProt P01116+P62942, F37V/G12V); experiment: Immunoblot of PATU-8902 FKBP12F36V-KRASG12V; KRAS-/- clone; type: cell-based; settings: time-course
T1 construct: KRAS G12V (fusion partner, same polypeptide); expressed in transfected cells
T1 sequence (P62942+P01116 fused P62942:F37V/P01116:G12V): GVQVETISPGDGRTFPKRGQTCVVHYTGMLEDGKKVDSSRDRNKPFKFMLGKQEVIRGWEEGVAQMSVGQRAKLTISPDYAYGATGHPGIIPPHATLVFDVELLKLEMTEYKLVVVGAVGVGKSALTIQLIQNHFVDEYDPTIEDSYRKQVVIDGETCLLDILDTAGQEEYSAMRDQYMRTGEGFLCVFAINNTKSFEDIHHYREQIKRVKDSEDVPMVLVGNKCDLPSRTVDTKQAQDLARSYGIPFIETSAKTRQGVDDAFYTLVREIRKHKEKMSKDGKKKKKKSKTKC
Experimental: PATU-8902 LACZ-FKBP12^F36V and FKBP12^F36V-KRAS^G12V; KRAS^−/− cells and 293T cells were lysed with RIPA buffer supplemented with cOmplete protease inhibitors (Roche), PhosSTOP phosphatase inhibitors (Roche), and 0.1% benzonase (Novagen). Proteins were separated using NuPAGE Bolt^TM Bis–Tris gels (Thermo Fisher Scientific) and transferred to nitrocellulose membranes, which were blocked with Odyssey Blocking Buffer (LI-COR) and incubated with primary antibodies overnight. Membranes were washed three times with TBS-T, incubated with the appropriate fluorescently labeled infrared secondary antibodies, washed again three times with TBS-T, and assessed using an Odyssey CLx Imager (LI-COR)[6],[15]. EWS502 cells were lysed with Cell Lysis Buffer (Cell Signaling Technology) supplemented with cOmplete protease inhibitors (Roche). Proteins were separated using SDS-PAGE gels and transferred to PVDF membranes, which were blocked with 5% milk in TBS-T and incubated with primary antibodies overnight. Membranes were washed five times with TBS-T, incubated with the appropriate horseradish peroxidase-conjugated secondary antibodies, washed again five times with TBS-T, and imaged. The following primary antibodies were employed in this study: HA (Cell Signaling Technology #3724 and #2367, dilution at 1:1000), phospho-ERK1/2 T202/Y204 (Cell Signaling Technology #4370, dilution at 1:1000), ERK1/2 (Cell Signaling Technology #4696, dilution at 1:1000), phospho-AKT S473 (Cell Signaling Technology #4060, dilution at 1:1000), AKT (Cell Signaling Technology #2920, dilution at 1:1000), FKBP12 (Abcam #ab24373, dilution at 1:1000), GFP (Cell Signaling Technology #2555, dilution at 1:1000), FLI (Abcam #ab15289, dilution at 1:2000), NKX2-2 (Abcam #ab187375, dilution at 1:1000), GAPDH (Cell Signaling Technology #2118, dilution at 1:3000), Vinculin (Cell Signaling Technology #13901, dilution at 1:3000), β-Actin (Cell Signaling Technology #58169, dilution at 1:3000), and α-Tubulin (Cell Signaling Technology #3873, dilution at 1:5000). Species-specific fluorescently labeled infrared secondary antibodies including IRDye 680LT anti-Mouse IgG (LI-COR #926-68020, dilution at 1:5000), IRDye 800CW anti-Mouse IgG (LI-COR #926-32210, dilution at 1:5000), IRDye 680LT anti-Rabbit IgG (LI-COR #926-68021, dilution at 1:5000), and IRDye 800CW anti-Rabbit IgG (LI-COR #926-32211, dilution at 1:5000) and peroxidase-linked secondary antibodies including anti-Mouse IgG (Thermo Fisher Scientific #45000680, dilution at 1:5000) and anti-Rabbit IgG (Thermo Fisher Scientific #45000682, dilution at 1:5000) were employed as appropriate.

[1] = Pharmacokinetic evaluation in mice; type: in vivo, C57BL/6J male mice; settings: for exposure (AUCinf) / half-life (T1/2): intraperitoneal administration at 10 mg kg^−1
Text: For IP injections, dTAG-13 and dTAG^V-1 were formulated by dissolving into DMSO and then diluting with 20% solutol (Sigma): 0.9% sterile saline (Moltox) (w:v) with the final formulation containing 5% DMSO. […] Formulations were stable at room temperature for 7 days. For IV injections, dTAG-13 and dTAG^V-1 were formulated by dissolving into DMSO and then diluting with 5% solutol (Sigma): 0.9% sterile saline (Moltox) (w:v) with the final formulation containing 5% DMSO. All procedures for PK studies were compliant with ethical regulations for animal testing and research, and were approved by and performed in accordance with standards of the Institute Animal Care and Use Committee (IACUC) at Scripps Florida. Housing conditions for mice at Scripps Florida were as follows: lights on = 7 AM, lights off = 7 PM, average ambient temperature = 72 °F, and average humidity = 45%. PK was assessed in 8-week-old C57BL/6J male mice (Jackson Laboratory, #000664) with blood collected at 0.08, 0.25, 0.5, 1, 2, 4, 6, and 8 h (2 mg kg^−1 dTAG-13 intravenous (IV) tail vein, 10 mg kg^−1 dTAG-13 intraperitoneal (IP), and 2 mg kg^−1 dTAG^V-1 IV tail vein administrations) and 0.25, 0.5, 1, 2, 4, 6, 8, 24 and 48 h (2 mg kg^−1 dTAG^V-1 IP and 10 mg kg^−1 dTAG^V-1 IP administrations). Plasma was generated by centrifugation and plasma concentrations were determined by LC-MS/MS following the mass transition 49600à340 AMU. PK parameters were calculated using Phoenix WinNonlin to determine peak plasma concentration (Cmax), oral bioavailability (%F), exposure (AUC), half-life (t1/2), clearance (CL), and volume of distribution (Vd).

[2] = tested on: EWS502 FKBP12^F36V-GFP cells; experiment: Relative growth of EWS502 FKBP12F36V-GFP cells (CellTiter-Glo); type: cell-based
Experimental: Cell viability was assayed in 2D-adherent or ultra-low adherent 3D-spheroids using CellTiter-Glo (Promega)[6],[15]. Luminescence was measured on an Envision 2104 plate reader (PerkinElmer) and Fluostar Omega Reader (BMG Labtech) and data was analyzed using GraphPad PRISM v8. Synergy assessments were performed using CellTiter-Glo (Promega) with the following modifications to the protocol described in the ref. [34]. In brief, EWS502 cells were plated at 1000 cells per well in 50 µL of appropriate media in 384-well white culture plates (Corning) allowed to adhere overnight, and 100 nL of compounds were added using a Janus Workstation pin tool (PerkinElmer) for 72 h. Cell viability was measured by addition of 10 µL of CellTiter-glo (Promega), followed by incubation for 15 minutes at room temperature. Luminescence was measured on an Envision 2104 plate reader (PerkinElmer) and data was analyzed using GraphPad PRISM v8.

[3] = male, C57BL/6J, mouse, plasma, IP, 2 mg kg-1
[4] = male, C57BL/6J, mouse, plasma, IP, 10 mg kg-1
[5] = male, C57BL/6J, mouse, plasma, IV, 2 mg kg-1

With CC[C@H](C(=O)N1CCCC[C@H]1C(=O)O[C@H](CCc1ccc(OC)c(OC)c1)c1ccccc1OCC(=O)NCCCCCCC(=O)N[C@H](C(=O)N1C[C@H](O)C[C@H]1C(=O)N[C@@H](C)c1ccc(-c2scnc2C)cc1)C(C)(C)C)c1cc(OC)c(OC)c(OC)c1 [dTAG^V-1] the “KRASG12V degradation, immunoblot” value (FKBP12^F36V-KRAS^G12V) was “rapid KRAS^G12V degradation”, the CL ([1]; IP, 2 mg kg-1) was 10.7 mL/min/kg and the CL ([1]; IP, 10 mg kg-1) was 9.05 mL/min/kg. For the same compound, the “exposure (AUCinf)” value [1] was 18,517 h ng mL^−1, the “half-life (T1/2)” value [1] was 4.43 h and the AUC(0-inf) [1, 3] was 3140 ng·h/mL. It also gave an AUC(0-t) [1, 3] of 2240 ng·h/mL, a half-life [1, 3] of 3.64 h and a Cmax ([1]; male, C57BL/6J, mouse, plasma, IP, 2 mg kg-1, read-out: Cmax) of 595 ng/mL. For the same compound, the Tmax ([1]; male, C57BL/6J, mouse, plasma, IP, 2 mg kg-1, read-out: Tmax) was 1.67 h, the AUC(0-inf) [1, 4] was 18500 ng·h/mL and the AUC(0-t) [1, 4] was 18100 ng·h/mL. For the same compound, the half-life [1, 4] was 4.43 h, the Cmax ([1]; male, C57BL/6J, mouse, plasma, IP, 10 mg kg-1, read-out: Cmax) was 2120 ng/mL and the Tmax ([1]; male, C57BL/6J, mouse, plasma, IP, 10 mg kg-1, read-out: Tmax) was 2 h. It also gave an AUC(0-inf) [1, 5] of 3330 ng·h/mL, an AUC(0-t) [1, 5] of 3240 ng·h/mL and a clearance [1, 5] of 10.1 mL/min/kg. The half-life [1, 5] was 3.02 h, the Cmax ([1]; male, C57BL/6J, mouse, plasma, IV, 2 mg kg-1, read-out: Cmax) was 7780 ng/mL and the Tmax ([1]; male, C57BL/6J, mouse, plasma, IV, 2 mg kg-1, read-out: Tmax) was 0.08 h. The Vd ([1]; male, C57BL/6J, mouse, plasma, IV, 2 mg kg-1, read-out: Vss) was 0.56 L/kg, the “Relative growth (luminescence values relative to day 0)” value (from here on “Relative growth”) ([2]; day 0, technical replicates) was 1.01 and 0.9846 and 0.9416 and 1.081 and 0.9895 and 0.8796 and 1.056 and 1.058 and the “Relative growth” value ([2]; day 3, technical replicates) was 7.436 and 7.522 and 7.571 and 8.146 and 7.791 and 7.539 and 7.5229 and 8.295. For the same compound, the “Relative growth” value ([2]; day 5, technical replicates) was 12.9905 and 13.8226 (2×) and 13.4717 and 14.0465 and 14.5379 and 14.3196 and 15.9343 and the “Relative growth” value ([2]; day 7, technical replicates) was 19.3543 and 18.2942 and 18.0829 and 20.64 and 18.2038 and 18.0695 and 17.6427 and 20.3483.
With CCC(C(=O)N1CCCCC1C(=O)OC(CCc1ccc(OC)c(OC)c1)c1ccccc1OCC(=O)NCCCCCCC(=O)NC(C(=O)N1CC(O)CC1C(=O)NC(C)c1ccc(-c2scnc2C)cc1)C(C)(C)C)c1cc(OC)c(OC)c(OC)c1 (stereo not shown) [dTAG^V-1-NEG] the “KRASG12V degradation, immunoblot” value (FKBP12^F36V-KRAS^G12V) was “not induced”, the “Relative growth” value ([2]; day 0, technical replicates) was 0.9807 and 0.9337 and 1.074 and 0.9661 and 0.9369 and 1.05 and 0.936 and 1.123 and the “Relative growth” value ([2]; day 3, technical replicates) was 8.012 and 8.414 and 8.126 and 8.231 and 8.041 and 7.9927 and 8.641 and 7.789. For the same compound, the “Relative growth” value ([2]; day 5, technical replicates) was 16.2325 and 15.4561 and 17.0235 and 15.0335 and 14.9405 and 13.797 and 14.8812 and 15.4178 and the “Relative growth” value ([2]; day 7, technical replicates) was 19.7372 and 19.9296 and 22.6222 and 21.4195 and 20.5619 and 20.5847 and 22.7467 and 21.3128.
With CC[C@H](C(=O)N1CCCC[C@H]1C(=O)O[C@H](CCc1ccc(OC)c(OC)c1)c1ccccc1OCC(=O)NCCCCCCOc1cccc2c1C(=O)N(C1CCC(=O)NC1=O)C2=O)c1cc(OC)c(OC)c(OC)c1 (stereo partly shown) [dTAG-13] the AUCinf ([1]; IP, 10 mg kg-1) was 6140 ng·h/mL, the AUClast ([1]; IP, 10 mg kg-1) was 5619 ng·h/mL and the CL ([1]; IP, 10 mg kg-1) was 28 mL/min/kg. The Cmax ([1]; IP, 10 mg kg-1) was 1263 ng/mL, the T1/2 ([1]; IP, 10 mg kg-1) was 2.41 h and the Tmax ([1]; IP, 10 mg kg-1) was 2.00 h. For the same compound, the AUCinf ([1]; IV, 2 mg kg-1) was 1253 ng·h/mL, the AUClast ([1]; IV, 2 mg kg-1) was 1242 ng·h/mL and the CL ([1]; IV, 2 mg kg-1) was 32.5 mL/min/kg. For the same compound, the Cmax ([1]; IV, 2 mg kg-1) was 2373 ng/mL, the T1/2 ([1]; IV, 2 mg kg-1) was 1.46 h and the Tmax ([1]; IV, 2 mg kg-1) was 0.08 h. The Vss ([1]; IV, 2 mg kg-1) was 1.8 L/kg, the “exposure (AUCinf)” value [1] was 6140 ng·h/mL and the “half-life (T1/2)” value [1] was 2.41 h.
